How the values were obtained:
Experiment in all cases: cells
[1] = system: CCRF-CEM; type: functional, cell-based; settings: Homo sapiens;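 also: inhibition of CCRF-CEM cell growth, measured by a cell viability assay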
Description: SANGER: Inhibition of human CCRF-CEM cell growth in a cell viability assay.

[2] = system: CGTH-W-1; type: functional, cell-based, Homo sapiens; settings: Homo sapiens, CGTH-W-1;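 also: growth inhibition of human CGTH-W-1 cells measured by cell viability assay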
Description: SANGER: Inhibition of human CGTH-W-1 cell growth in a cell viability assay.

[3] = system: NCI-H650; type: functional, cell-based, Homo sapiens; settings: Homo sapiens, NCI-H650;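 also: growth inhibition of NCI-H650 cells, read out by a viability assay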
Description: SANGER: Inhibition of human NCI-H650 cell growth in a cell viability assay.

[4] = system: TE-5; type: functional, cell-based, Homo sapiens; settings: Homo sapiens, TE-5;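 also: inhibition of cell growth, read out by a cell viability assay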
Description: SANGER: Inhibition of human TE-5 cell growth in a cell viability assay.

[5] = system: ChaGo-K-1; type: functional, cell-based; settings: Homo sapiens;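 also: growth inhibition of ChaGo-K-1 cells, read out with a cell viability assay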
Description: SANGER: Inhibition of human ChaGo-K-1 cell growth in a cell viability assay.

[6] = system: BV-173; type: functional, cell-based; settings: Homo sapiens
Description: SANGER: Inhibition of human BV-173 cell growth in a cell viability assay.

[7] = system: HDLM-2; type: functional, cell-based; settings: Homo sapiens;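 also: cell viability assay measuring suppression of HDLM-2 proliferation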
Description: SANGER: Inhibition of human HDLM-2 cell growth in a cell viability assay.

[8] = system: HCC38; type: functional, cell-based, Homo sapiens; settings: Homo sapiens, HCC38;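 also: cell viability assay on the human HCC38 cell line, with IC50 marking the concentration that inhibits cell growth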
Description: SANGER: Inhibition of human HCC38 cell growth in a cell viability assay.

[9] = system: KURAMOCHI; type: functional, cell-based; settings: Homo sapiens;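 also: growth inhibition of KURAMOCHI cells, read out with a cell viability assay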
Description: SANGER: Inhibition of human KURAMOCHI cell growth in a cell viability assay.

[10] = system: FTC-133; type: functional, cell-based, Homo sapiens; settings: Homo sapiens, FTC-133
[11] = system: DJM-1; type: functional, cell-based, Homo sapiens; settings: Homo sapiens, DJM-1;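 also: growth inhibition of human DJM-1 cells, read out by a cell viability assay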
Description: SANGER: Inhibition of human DJM-1 cell growth in a cell viability assay.

[12] = system: NCI-H1395; type: functional, cell-based, Homo sapiens; settings: Homo sapiens, NCI-H1395;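 also: cell viability assay read-out quantifying reduced proliferation of human NCI-H1395 cells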
Description: SANGER: Inhibition of human NCI-H1395 cell growth in a cell viability assay.

[13] = system: OVCAR-8; type: functional, cell-based, Homo sapiens; settings: Homo sapiens, OVCAR-8;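 also: growth inhibition of human OVCAR-8 cells, read out by a cell viability assay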
Description: SANGER: Inhibition of human OVCAR-8 cell growth in a cell viability assay.

[14] = system: SK-N-AS; type: functional, cell-based, Homo sapiens; settings: Homo sapiens, SK-N-AS;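 also: growth inhibition of human SK-N-AS cells, measured with a cell viability assay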
Description: SANGER: Inhibition of human SK-N-AS cell growth in a cell viability assay.

[15] = system: QIMR-WIL; type: functional, cell-based; settings: Homo sapiens;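 also: growth inhibition of QIMR-WIL cells, read out with a cell viability assay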
Description: SANGER: Inhibition of human QIMR-WIL cell growth in a cell viability assay.

[16] = system: DSH1; type: functional, cell-based, Homo sapiens; settings: Homo sapiens, DSH1;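 also: growth inhibition of human DSH1 cells, measured with a cell viability readout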
Description: SANGER: Inhibition of human DSH1 cell growth in a cell viability assay.

[17] = system: COLO-800; type: functional, cell-based, Homo sapiens; settings: Homo sapiens, COLO-800;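 also: growth inhibition of COLO-800 cells, read out with a cell viability assay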
Description: SANGER: Inhibition of human COLO-800 cell growth in a cell viability assay.

[18] = system: HTC-C3; type: functional, cell-based, Homo sapiens; settings: Homo sapiens, HTC-C3;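 also: inhibition of cell growth, read out with a cell viability assay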
Description: SANGER: Inhibition of human HTC-C3 cell growth in a cell viability assay.

[19] = system: Detroit 562; type: functional, cell-based, Homo sapiens; settings: Homo sapiens, Detroit 562;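 also: growth inhibition of human Detroit 562 cells, read out by a cell viability assay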
Description: SANGER: Inhibition of human Detroit562 cell growth in a cell viability assay.

[20] = system: HT-29; type: functional, cell-based, Homo sapiens; settings: Homo sapiens, HT-29;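 also: growth inhibition of human HT-29 cells, read out by a cell viability assay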
Description: SANGER: Inhibition of human HT-29 cell growth in a cell viability assay.

[21] = system: NEC8; type: functional, cell-based, Homo sapiens; settings: Homo sapiens, NEC8;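 also: growth inhibition of human NEC8 cells, read out by a cell viability assay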
Description: SANGER: Inhibition of human NEC8 cell growth in a cell viability assay.

[22] = system: SK-N-FI; type: functional, cell-based, Homo sapiens; settings: Homo sapiens, SK-N-FI;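 also: cell viability assay measuring growth inhibition of human SK-N-FI cells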
Description: SANGER: Inhibition of human SK-N-FI cell growth in a cell viability assay.

[23] = system: HuP-T4; type: functional, cell-based, Homo sapiens; settings: Homo sapiens, HuP-T4;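 also: cell viability assay measuring how much HuP-T4 cell growth is inhibited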
Description: SANGER: Inhibition of human HuP-T4 cell growth in a cell viability assay.

[24] = system: NKM-1; type: functional, cell-based; settings: Homo sapiens;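 also: growth inhibition of NKM-1 cells, read out with a cell viability assay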
Description: SANGER: Inhibition of human NKM-1 cell growth in a cell viability assay.

[25] = system: HAL-01; type: functional, cell-based; settings: Homo sapiens;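 also: growth inhibition of human HAL-01 cells, read out with a cell viability assay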
Description: SANGER: Inhibition of human HAL-01 cell growth in a cell viability assay.

[26] = system: COLO-679; type: functional, cell-based, Homo sapiens; settings: Homo sapiens, COLO-679
Description: SANGER: Inhibition of human COLO-679 cell growth in a cell viability assay.

[27] = system: LCLC-103H cell line; type: functional, cell-based, Homo sapiens; settings: Homo sapiens, LCLC-103H
Description: SANGER: Inhibition of human LCLC-103H cell growth in a cell viability assay.

[28] = system: OS-RC-2; type: functional, cell-based, Homo sapiens; settings: Homo sapiens, OS-RC-2;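 also: growth inhibition of human OS-RC-2 cells, measured by a cell viability assay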
Description: SANGER: Inhibition of human OS-RC-2 cell growth in a cell viability assay.

[29] = system: COLO-680N; type: functional, cell-based, Homo sapiens; settings: Homo sapiens, COLO-680N;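 also: cell viability assay used to measure inhibition of COLO-680N cell growth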
Description: SANGER: Inhibition of human COLO-680N cell growth in a cell viability assay.

[30] = system: NCI-H2122; type: functional, cell-based, Homo sapiens; settings: Homo sapiens, NCI-H2122;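 also: growth inhibition of the cells, read out with a cell viability assay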
Description: SANGER: Inhibition of human NCI-H2122 cell growth in a cell viability assay.

[31] = system: OMC-1; type: functional, cell-based, Homo sapiens; settings: Homo sapiens, OMC-1;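 also: growth inhibition of the OMC-1 cell line, measured by a cell viability assay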
Description: SANGER: Inhibition of human OMC-1 cell growth in a cell viability assay.

[32] = system: CTV-1; type: functional, cell-based; settings: Homo sapiens;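 also: growth inhibition of the cell line, read out with a cell viability assay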
Description: SANGER: Inhibition of human CTV-1 cell growth in a cell viability assay.

[33] = system: EW-1; type: functional, cell-based, Homo sapiens; settings: Homo sapiens, EW-1;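 also: growth inhibition of the human EW-1 cell line, read out by a cell viability assay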
Description: SANGER: Inhibition of human EW-1 cell growth in a cell viability assay.

[34] = system: COLO-741; type: functional, cell-based, Homo sapiens; settings: Homo sapiens, COLO-741
Description: SANGER: Inhibition of human COLO-741 cell growth in a cell viability assay.

[35] = system: LN-405; type: functional, cell-based, Homo sapiens; settings: Homo sapiens, LN-405
Description: SANGER: Inhibition of human LN-405 cell growth in a cell viability assay.

[36] = system: IST-SL1; type: functional, cell-based, Homo sapiens; settings: Homo sapiens, IST-SL1;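 also: growth inhibition of human IST-SL1 cells, read out with a cell viability assay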
Description: SANGER: Inhibition of human IST-SL1 cell growth in a cell viability assay.

[37] = system: H4; type: functional, cell-based; settings: Homo sapiens
Description: SANGER: Inhibition of human H4 cell growth in a cell viability assay.

[38] = system: ME-180; type: functional, cell-based; settings: Homo sapiens;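 also: cell viability assay measuring growth inhibition of ME-180 cells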
Description: SANGER: Inhibition of human ME-180 cell growth in a cell viability assay.

[39] = system: HOP-92; type: functional, cell-based, Homo sapiens; settings: Homo sapiens, HOP-92;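 also: cell viability readout, with IC50 reflecting inhibition of HOP-92 cell growth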
Description: SANGER: Inhibition of human HOP-92 cell growth in a cell viability assay.

[40] = system: COLO-684; type: functional, cell-based; settings: Homo sapiens
Description: SANGER: Inhibition of human COLO-684 cell growth in a cell viability assay.

[41] = system: HCC 2998; type: functional, cell-based, Homo sapiens; settings: Homo sapiens, HCC 2998;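 also: growth inhibition of human HCC2998 cells, measured with a cell viability read-out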
Description: SANGER: Inhibition of human HCC2998 cell growth in a cell viability assay.

[42] = system: KY821; type: functional, cell-based; settings: Homo sapiens;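 also: growth inhibition of human KY821 cells, read out by a cell viability assay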
Description: SANGER: Inhibition of human KY821 cell growth in a cell viability assay.

[43] = system: NB69; type: functional, cell-based, Homo sapiens; settings: Homo sapiens, NB69;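 also: growth inhibition of NB69 cells, determined by a cell viability assay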
Description: SANGER: Inhibition of human NB69 cell growth in a cell viability assay.

[44] = system: no-11; type: functional, cell-based, Homo sapiens; settings: Homo sapiens;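 also: growth inhibition of human NO-11 cells, read out with a cell viability assay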
Description: SANGER: Inhibition of human no-11 cell growth in a cell viability assay.

[45] = system: RMG-I; type: functional, cell-based, Homo sapiens; settings: Homo sapiens, RMG-I;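 also: growth inhibition of human RMG-I cells, read out with a cell viability assay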
Description: SANGER: Inhibition of human RMG-I cell growth in a cell viability assay.

[46] = system: GMS-10; type: functional, cell-based, Homo sapiens; settings: Homo sapiens, GMS-10;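 also: growth inhibition of GMS-10 cells, read out as cell viability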
Description: SANGER: Inhibition of human GMS-10 cell growth in a cell viability assay.

[47] = system: MDA-MB-361; type: functional, cell-based, Homo sapiens; settings: Homo sapiens, MDA-MB-361
[48] = system: EFO-21; type: functional, cell-based, Homo sapiens; settings: Homo sapiens, EFO-21;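 also: growth inhibition of EFO-21 cells measured with a viability assay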
Description: SANGER: Inhibition of human EFO-21 cell growth in a cell viability assay.

[49] = system: G-401; type: functional, cell-based, Homo sapiens; settings: Homo sapiens, G-401
Description: SANGER: Inhibition of human G-401 cell growth in a cell viability assay.

[50] = system: EOL1; type: functional, cell-based; settings: Homo sapiens;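 also: growth inhibition of EoL-1 cells, read out by a cell viability assay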
Description: SANGER: Inhibition of human EoL-1-cell cell growth in a cell viability assay.

[51] = system: SNU1; type: functional, cell-based; settings: Homo sapiens;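 also: growth inhibition of human NCI-SNU-1 cells, measured with a cell viability assay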
Description: SANGER: Inhibition of human NCI-SNU-1 cell growth in a cell viability assay.

[52] = system: TGW; type: functional, cell-based; settings: Homo sapiens;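 also: growth inhibition of human TGW cells, read out with a cell viability assay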
Description: SANGER: Inhibition of human TGW cell growth in a cell viability assay.

COc1cc(F)c(F)c(Nc2ccc(I)cc2F)c1NS(=O)(=O)C1(CC(O)CO)CC1 (centres undefined)
IC50 [1]: > 5 µM
IC50 [2]: 2.73 µM
IC50 [3]: > 5 µM
IC50 [4]: 4.52 µM
IC50 [5]: > 5 µM
IC50 [6]: 2.38 µM
IC50 [7]: > 5 µM
IC50 [8]: > 5 µM
IC50 [9]: > 5 µM
IC50 [10]: 4.55 µM
IC50 [11]: > 5 µM
IC50 [12]: > 5 µM
IC50 [13]: > 5 µM
IC50 [14]: 0.0433 µM
IC50 [15]: > 5 µM
IC50 [16]: > 5 µM
IC50 [17]: > 5 µM
IC50 [18]: 0.122 µM
IC50 [19]: > 5 µM
IC50 [20]: 0.182 µM
IC50 [21]: > 5 µM
IC50 [22]: 1.88 µM
IC50 [23]: 0.514 µM
IC50 [24]: 2.43 µM
IC50 [25]: > 5 µM
IC50 [26]: 0.153 µM
IC50 [27]: > 5 µM
IC50 [28]: > 5 µM
IC50 [29]: > 5 µM
IC50 [30]: 2.17 µM
IC50 [31]: > 5 µM
IC50 [32]: 4.96 µM
IC50 [33]: > 5 µM
IC50 [34]: 0.915 µM
IC50 [35]: > 5 µM
IC50 [36]: > 5 µM
IC50 [37]: 3.35 µM
IC50 [38]: 1.75 µM
IC50 [39]: 0.683 µM
IC50 [40]: > 5 µM
IC50 [41]: 0.0869 µM
IC50 [42]: 0.107 µM
IC50 [43]: 0.557 µM
IC50 [44]: > 5 µM
IC50 [45]: > 5 µM
IC50 [46]: 3.8 µM
IC50 [47]: > 5 µM
IC50 [48]: > 5 µM
IC50 [49]: 1.97 µM
IC50 [50]: 0.399 µM
IC50 [51]: 1.24 µM
IC50 [52]: > 5 µM

COc1ccc(-c2ccc3c(N4CCOC[C@@H]4C)nc(N4CCOC[C@@H]4C)nc3n2)cc1CO [AZD-8055]
IC50 [1]: > 2 µM
IC50 [2]: 1.56 µM
IC50 [3]: 0.791 µM
IC50 [4]: 0.684 µM
IC50 [5]: > 2 µM
IC50 [6]: 0.0906 µM
IC50 [7]: 1.21 µM
IC50 [8]: > 2 µM
IC50 [9]: > 2 µM
IC50 [10]: > 2 µM
IC50 [11]: 1.62 µM
IC50 [12]: > 2 µM
IC50 [13]: > 2 µM
IC50 [14]: > 2 µM
IC50 [15]: 0.452 µM
IC50 [16]: > 2 µM
IC50 [17]: 0.698 µM
IC50 [18]: 0.732 µM
IC50 [19]: 1.19 µM
IC50 [20]: > 2 µM
IC50 [21]: 0.417 µM
IC50 [22]: 1.56 µM
IC50 [23]: 1.49 µM
IC50 [24]: 0.2 µM
IC50 [25]: 0.203 µM
IC50 [26]: > 2 µM
IC50 [27]: > 2 µM
IC50 [28]: 1.08 µM
IC50 [29]: 1.82 µM
IC50 [30]: > 2 µM
IC50 [31]: 0.727 µM
IC50 [32]: 0.0864 µM
IC50 [33]: 1.61 µM
IC50 [34]: > 2 µM
IC50 [35]: 1.28 µM
IC50 [36]: > 2 µM
IC50 [37]: 0.601 µM
IC50 [38]: 0.147 µM
IC50 [39]: > 2 µM
IC50 [40]: 0.457 µM
IC50 [41]: 1.93 µM
IC50 [42]: 1.57 µM
IC50 [43]: 0.135 µM
IC50 [44]: > 2 µM
IC50 [45]: > 2 µM
IC50 [46]: 1.75 µM
IC50 [47]: 0.509 µM
IC50 [48]: > 2 µM
IC50 [49]: 0.31 µM
IC50 [50]: 0.0657 µM
IC50 [51]: 0.323 µM
IC50 [52]: > 2 µM
